For `NS(=O)(=O)c1cncc(C#Cc2cnn3c(C(F)F)cc(-c4ccc(C(F)(F)F)cc4)nc23)c1` [Example 30, 5-[7-Difluoromethyl-5-(4-trifluoromethyl-phenyl)-pyrazolo[1,5-a]pyrimidin-3-ylethynyl]-pyridine-3-sulfonic acid amide], the melting point is 238 °C.
`Cc1cc(C#Cc2cnn3c(C(F)F)cc(-c4ccc(C(F)(F)F)cc4)nc23)cnc1N` [Example 142, 5-[7-Difluoromethyl-5-(4-trifluoromethyl-phenyl)-pyrazolo[1,5-a]pyrimidin-3-ylethynyl]-3-methyl-pyridin-2-ylamine] registered a melting point of 194 to 195 °C.
In turn, `Cc1cc(-c2ccc(C(F)(F)F)cc2)nc2c(C#Cc3ccc(S(N)(=O)=O)cc3)cnn12` [Example 150, 4-[7-Methyl-5-(4-trifluoromethyl-phenyl)-pyrazolo[1,5-a]pyrimidin-3-ylethynyl]-benzenesulfonamide] displayed a melting point of 282 to 284 °C.
For the molecule `NS(=O)(=O)c1ccc(C#Cc2cnc3c(C(F)(F)F)cc(-c4ccc(C(F)(F)F)cc4)cn23)s1` [Example 193, 5-[8-Trifluoromethyl-6-(4-trifluoromethyl-phenyl)-imidazo[1,2-a]pyridin-3-ylethynyl]-thiophene-2-sulfonic acid amide], the melting point fell in the range of 248 to 250 °C.
With `NS(=O)(=O)c1cccc(C#Cc2cnn3c(C(F)(F)F)cc(-c4cccc(C(F)(F)F)c4)nc23)c1` [Example 118, 3-[7-Trifluoromethyl-5-(3-trifluoromethyl-phenyl)-pyrazolo[1,5-a]pyrimidin-3-ylethynyl]-benzenesulfonamide], the melting point came to 193 °C.
Under `NS(=O)(=O)c1ccc(C#Cc2cnn3c(C(F)(F)F)cc(-c4cccc(C(F)(F)F)c4)nc23)s1` [Example 119, 5-[7-Trifluoromethyl-5-(3-trifluoromethyl-phenyl)-pyrazolo[1,5-a]pyrimidin-3-ylethynyl]-thiophene-2-sulfonic acid amide] stands 250 °C; under `CNS(=O)(=O)c1cccc(C#Cc2cnn3c(C(F)F)cc(-c4ccc(C(F)(F)F)cc4)nc23)c1` [Example 145, 3-[7-Difluoromethyl-5-(4-trifluoromethyl-phenyl)-pyrazolo[1,5-a]pyrimidin-3-ylethynyl]-N-methyl-benzenesulfonamide], 192 to 194 °C; under `NC(=O)c1ccc(C#Cc2cnc3c(C(F)(F)F)cc(-c4ccc(C(F)(F)F)cc4)cn23)cc1` [Example 203, 4-[8-Trifluoromethyl-6-(4-trifluoromethyl-phenyl)-imidazo[1,2-a]pyridin-3-ylethynyl]-benzamide], 286 °C.
With `O=S(=O)(NCCO)c1cc(C#Cc2cnn3c(C(F)F)cc(-c4ccc(C(F)(F)F)cc4)nc23)c(F)cc1F` [Example 135, 5-[7-Difluoromethyl-5-(4-trifluoromethyl-phenyl)-pyrazolo[1,5-a]pyrimidin-3-ylethynyl]-2,4-difluoro-N-(2-hydroxy-ethyl)-benzenesulfonamide], the melting point fell in the range of 149 to 150 °C.
`CN(C)CCNS(=O)(=O)c1cccc(C#Cc2cnn3c(C(F)F)cc(-c4ccc(C(F)(F)F)cc4)nc23)c1` [Example 148, 3-[7-Difluoromethyl-5-(4-trifluoromethyl-phenyl)-pyrazolo[1,5-a]pyrimidin-3-ylethynyl]-N-(2-dimethylamino-ethyl)-benzenesulfonamide] yielded a melting point of 160 to 162 °C.
In turn, `Nc1ncc(C#Cc2ncn3c(C(F)(F)F)cc(-c4ccc(C(F)(F)F)cc4)nc23)cn1` [Example 285, 5-[4-Trifluoromethyl-2-(4-trifluoromethyl-phenyl)-imidazo[1,5-a]pyrimidin-8-ylethynyl]-pyrimidin-2-ylamine] gave a melting point of 294 °C.
Under `Cc1cc(-c2cc(C(F)(F)F)n3ncc(C#Cc4ccc(S(=O)(=O)NC(C)(C)C)s4)c3n2)ccc1Cl` [Example 115, 5-[5-(4-Chloro-3-methyl-phenyl)-7-trifluoromethyl-pyrazolo[1,5-a]pyrimidin-3-ylethynyl]-thiophene-2-sulfonic acid tert-butylamide] stands 244 °C; under `CC(C)(O)c1ccc(C#Cc2cnn3c(C(F)(F)F)cc(-c4ccc(C(F)(F)F)cc4)nc23)cc1` [Example 202, 2-{4-[7-Trifluoromethyl-5-(4-trifluoromethyl-phenyl)-pyrazolo[1,5-a]pyrimidin-3-ylethynyl]-phenyl}-propan-2-ol], 170 to 171 °C.
On to `Cc1cc(-c2ccc(C(F)(F)F)cc2)cn2c(C#Cc3cnc(N)nc3)cnc12` [Example 220, 5-[8-Methyl-6-(4-trifluoromethyl-phenyl)-imidazo[1,2-a]pyridin-3-ylethynyl]-pyrimidin-2-ylamine], for which the melting point stood at 236 °C.
The molecule `N#Cc1cc(-c2ccc(C(F)(F)F)cc2)cn2c(C#Cc3ccc(S(N)(=O)=O)s3)cnc12` [Example 214, 5-[8-Cyano-6-(4-trifluoromethyl-phenyl)-imidazo[1,2-a]pyridin-3-ylethynyl]-thiophene-2-sulfonic acid amide] had a melting point of 267 to 269 °C.
The same measure for `FC(F)(F)c1ccc(-c2cc(C(F)(F)F)n3cnc(C#Cc4cccnc4)c3n2)cc1` [Example 268, 8-Pyridin-3-ylethynyl-4-trifluoromethyl-2-(4-trifluoromethyl-phenyl)-imidazo[1,5-a]pyrimidine]: 199 °C; for `NS(=O)(=O)c1cc(C#Cc2cnn3c(C4CC4)cc(-c4ccc(Cl)c(Cl)c4)nc23)c(F)cc1F` [Example 85, 5-[7-Cyclopropyl-5-(3,4-dichloro-phenyl)-pyrazolo[1,5-a]pyrimidin-3-ylethynyl]-2,4-difluoro-benzenesulfonamide]: 280 to 281 °C; for `CN(C)CCNS(=O)(=O)c1ccc(C#Cc2cnn3c(C(F)(F)F)cc(-c4ccc(C(F)(F)F)cc4)nc23)s1` [Example 159, 5-[7-Trifluoromethyl-5-(4-trifluoromethyl-phenyl)-pyrazolo[1,5-a]pyrimidin-3-ylethynyl]-thiophene-2-sulfonic acid (2-dimethylamino-ethyl)-amide]: 178 °C.
Take `Nc1ncc(C#Cc2cnn3c(C(F)(F)F)cc(-c4ccc(Cl)cc4)nc23)cc1C(F)(F)F` [Example 223, 5-[5-(4-Chloro-phenyl)-7-trifluoromethyl-pyrazolo[1,5-a]pyrimidin-3-ylethynyl]-3-trifluoromethyl-pyridin-2-ylamine]: the melting point was found to be 209 °C.
The same measure for `NS(=O)(=O)c1ccc(C#Cc2cnn3c(C4CC4)cc(-c4ccc(C(F)(F)F)cc4)nc23)cc1` [Example 76, 4-[7-Cyclopropyl-5-(4-trifluoromethyl-phenyl)-pyrazolo[1,5-a]pyrimidin-3-ylethynyl]-benzenesulfonamide]: 228 to 230 °C; for `O=S(=O)(NCCN1CCOCC1)c1ccc(C#Cc2cnn3c(C(F)(F)F)cc(-c4ccc(C(F)(F)F)cc4)nc23)s1` [Example 158, 5-[7-Trifluoromethyl-5-(4-trifluoromethyl-phenyl)-pyrazolo[1,5-a]pyrimidin-3-ylethynyl]-thiophene-2-sulfonic acid (2-morpholin-4-yl-ethyl)-amide]: 219 °C.
On to `NS(=O)(=O)c1ccc(C#Cc2cnn3c(C(F)(F)F)cc(-c4ccc(C(F)(F)F)cc4)nc23)c(F)c1` [Example 45, 3-Fluoro-4-[7-trifluoromethyl-5-(4-trifluoromethyl-phenyl)-pyrazolo[1,5-a]pyrimidin-3-ylethynyl]-benzenesulfonamide], for which the melting point lay in the range of 230 to 232 °C.
`CN(C)CCNS(=O)(=O)c1ccc(C#Cc2cnn3c(C(F)F)cc(-c4ccc(C(F)(F)F)cc4)nc23)s1` [Example 253, 5-[7-Difluoromethyl-5-(4-trifluoromethyl-phenyl)-pyrazolo[1,5-a]pyrimidin-3-ylethynyl]-thiophene-2-sulfonic acid (2-dimethylamino-ethyl)-amide] registered a melting point of 132 °C.
Under `NS(=O)(=O)c1ccc(C#Cc2cnc3c(C4CC4)cc(-c4ccc(C(F)(F)F)cc4)cn23)s1` [Example 224, 5-[8-Cyclopropyl-6-(4-trifluoromethyl-phenyl)-imidazo[1,2-a]pyridin-3-ylethynyl]-thiophene-2-sulfonic acid amide] stands 261 °C.
The same measure for `NS(=O)(=O)c1cccc(C#Cc2cnn3c(C(F)(F)F)cc(-c4ccc(Cl)cc4)nc23)c1` [Example 98, 3-[5-(4-Chloro-phenyl)-7-trifluoromethyl-pyrazolo[1,5-a]pyrimidin-3-ylethynyl]-benzenesulfonamide]: 218 to 220 °C.
Under `CC(C)(O)c1cc(-c2ccc(Cl)cc2)nc2c(C#Cc3ccc(S(N)(=O)=O)cc3)cnn12` [Example 153, 4-[5-(4-Chloro-phenyl)-7-(1-hydroxy-1-methyl-ethyl)-pyrazolo[1,5-a]pyrimidin-3-ylethynyl]-benzenesulfonamide] stands 267 to 269 °C; under `O=S(=O)(Nc1ccncc1)c1ccc(C#Cc2cnn3c(C(F)(F)F)cc(-c4ccc(C(F)(F)F)cc4)nc23)s1` [Example 280, 5-[7-Trifluoromethyl-5-(4-trifluoromethyl-phenyl)-pyrazolo[1,5-a]pyrimidin-3-ylethynyl]-thiophene-2-sulfonic acid pyridin-4-ylamide], 209 °C; under `NS(=O)(=O)c1cc(C#Cc2ncn3c(C(F)(F)F)cc(-c4ccc(C(F)(F)F)cc4)nc23)c(F)cc1F` [Example 177, 2,4-Difluoro-5-[4-trifluoromethyl-2-(4-trifluoromethyl-phenyl)-imidazo[1,5-a]pyrimidin-8-ylethynyl]-benzenesulfonamide], 247 °C.
Regarding `Nc1ncc(C#Cc2cnc3c(C(F)(F)F)cc(-c4ccc(C(F)(F)F)cc4)nn23)cn1` [Example 243, 5-[8-Trifluoromethyl-6-(4-trifluoromethyl-phenyl)-imidazo[1,2-b]pyridazin-3-ylethynyl]-pyrimidin-2-ylamine], the melting point was in the range of 220 to 221 °C.
Under `NS(=O)(=O)c1ccc(C#Cc2cnn3c(C(F)(F)F)cc(-c4ccc(Cl)c(Cl)c4)nc23)cc1` [Example 94, 4-[5-(3,4-Dichloro-phenyl)-7-trifluoromethyl-pyrazolo[1,5-a]pyrimidin-3-ylethynyl]-benzenesulfonamide] stands 273 to 274 °C.

Source of the values: patent US8063048B2, “Acetylenyl-pyrazolo-pyrimidine derivatives” (Hoffmann-La Roche Inc., priority 2005, dated 2011).
